Laboratory results taken from US20120016009A1, “Optimized Methods For Delivery Of DSRNA Targeting The PCSK9 Gene” (priority 2008, published 2012).
In the oligonucleotide strings, read from the 5' end, every base follows the letter of its sugar. An asterisk marks phosphorothioate; unmarked linkages are phosphodiester. Other units and linkages are bracketed, terminal groups are in braces. A string of capitals states the bases alone. d = 2'-deoxy (DNA); m = 2'-O-methyl; r = 2'-OH (RNA)

Test system: PCSK9 mRNA
Assay: PCSK9 siRNA screening in HepG2 cells (lipofectamine 2000 transfection, PCSK9 mRNA by Quantigene, normalized to GAP-DH)
Type: cell-based, human
Details: for Mean percent remaining mRNA transcript at siRNA concentration/in cell type 30 nM/HepG2: 30 nM siRNA; for Mean percent remaining mRNA transcript at siRNA concentration/in cell type 3 nM/HepG2: 3 nM siRNA; for Mean percent remaining mRNA transcript at siRNA concentration/in cell type 100 nM/HepG2: 100 nM siRNA
Procedure, shortened: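 HepG2 cells, grown in MEM with 10% fetal calf serum, antibiotics, non-essential amino acids and sodium pyruvate at 37° C. and 5% CO2, were plated at 2.0×10^4 cells/well in 96-well plates and transfected directly with siRNA using lipofectamine 2000. After 24 hours, cells were lysed and PCSK9 mRNA was measured by Quantigene and normalized to GAP-DH mRNA.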

Substance	Mean percent remaining mRNA transcript at siRNA concentration/in cell type 30 nM/HepG2 [%]	also measured
AD-9725: PCSK9 siRNA (sense mUmUmCmUrGrGrAmUrGrGmCrAmUmCmUrArGmCmCdT*dT; antisense rGrGrCmUrArGrArUrGrCmCrArUrCmCrArGrArAdT*dT)	38	
AD-9718: PCSK9 siRNA (sense mCmCmUrArGrAmCrAmCmCrArGmCrAmUrAmCrArGdT*dT; antisense rCrUrGmUrArUrGrCrUrGrGrUrGrUrCmUrArGrGdT*dT)	78	
AD-9544: PCSK9 siRNA (sense rUrGrArGrGrArCrCrArGrCrGrGrGrUrArCrUrGdT*dT; antisense rCrArGrUrArCrCrCrGrCrUrGrGrUrCrCrUrCrAdT*dT)	68	
AD-9597: PCSK9 siRNA (sense rArGrCrCrArArGrCrCrUrCrUrUrCrUrUrArCrUdT*dT; antisense rArGrUrArArGrArArGrArGrGrCrUrUrGrGrCrUdT*dT)	23	IC50: 0.04 nM; Mean percent remaining mRNA transcript at siRNA concentration/in cell type 3 nM/HepG2: 21%
AD-9576: PCSK9 siRNA (sense rGrCrArGrArGrArCrUrGrArUrCrCrArCrUrUrCdT*dT; antisense rGrArArGrUrGrGrArUrCrArGrUrCrUrCrUrGrCdT*dT)	47	
AD-9524: PCSK9 siRNA (sense rGrCrUrGrGrUrGrCrUrArGrCrCrUrUrGrCrGrUdT*dT; antisense rArCrGrCrArArGrGrCrUrArGrCrArCrCrArGrCdT*dT)	23	IC50: 0.07 nM; Mean percent remaining mRNA transcript at siRNA concentration/in cell type 3 nM/HepG2: 28%
AD-9711: PCSK9 siRNA (sense mCrGrGmCrArAmCmUmUmCmCrGrGrGrAmCrGrAmUdT*dT; antisense rArUrCrGrUrCrCrCrGrGrArArGrUrUrGrCrCrGdT*dT)	122	
AD-9744: PCSK9 siRNA (sense rGrArGmCrAmUrGrGrArAmUmCmCmCrGrGmCmCmCdT*dT; antisense rGrGrGrCrCrGrGrGrArUrUrCmCrArUrGrCrUrCdT*dT)	91	
AD-9315: PCSK9 siRNA (sense rGrCrGrGrCrArCrCrCrUrCrArUrArGrGrCrCrUdT*dT; antisense rArGrGrCrCrUrArUrGrArGrGrGrUrGrCrCrGrCdT*dT)	15	IC50: 0.98 nM; Mean percent remaining mRNA transcript at siRNA concentration/in cell type 3 nM/HepG2: 32%
AD-9600: PCSK9 siRNA (sense rGrUrCrGrUrGrCrUrGrGrUrCrArCrCrGrCrUrGdT*dT; antisense rCrArGrCrGrGrUrGrArCrCrArGrCrArCrGrArCdT*dT)	112	
AD-9727: PCSK9 siRNA (sense rArGrGrGmUmCrAmUrGrGmUmCrAmCmCrGrAmCmUdT*dT; antisense rArGrUrCrGrGrUrGrArCmCrArUrGrArCrCrCrUdT*dT)	118	
AD-9693: PCSK9 siRNA (sense mCrGmCmUrGmUrGmUrGrGrAmCmCmUmCmUmUmUrGdT*dT; antisense mCrArArArGrArGrGrUrCmCrAmCrAmCrArGrCrGdT*dT)	50	
AD-9719: PCSK9 siRNA (sense mCrArGrGrGmUmCrAmUrGrGmUmCrAmCmCrGrAmCdT*dT; antisense rGrUrCrGrGrUrGrArCmCrArUrGrArCrCrCrUrGdT*dT)	115	
AD-9521: PCSK9 siRNA (sense rCrUrCrCrUrArGrArCrArCrCrArGrCrArUrArCdT*dT; antisense rGrUrArUrGrCrUrGrGrUrGrUrCrUrArGrGrArGdT*dT)	50	
AD-9550: PCSK9 siRNA (sense rGrArGrGrGrUrGrUrCrUrArCrGrCrCrArUrUrGdT*dT; antisense rCrArArUrGrGrCrGrUrArGrArCrArCrCrCrUrCdT*dT)	36	
AD-9707: PCSK9 siRNA (sense mUrGmCrGmCrGmUrGmCmUmCrArAmCmUrGmCmCrAdT*dT; antisense rUrGrGmCrArGrUrUrGrArGmCrArCrGrCrGmCrAdT*dT)	81	
AD-9539: PCSK9 siRNA (sense rGrGrUrGrGrArGrGrUrGrUrArUrCrUrCrCrUrAdT*dT; antisense rUrArGrGrArGrArUrArCrArCrCrUrCrCrArCrCdT*dT)	63	Mean percent remaining mRNA transcript at siRNA concentration/in cell type 100 nM/HepG2: 56%
AD-9631: PCSK9 siRNA (sense rCrUrCrUrGrCrCrArArArGrArUrGrUrCrArUrCdT*dT; antisense rGrArUrGrArCrArUrCrUrUrUrGrGrCrArGrArGdT*dT)	80	
AD-9640: PCSK9 siRNA (sense rGmUrAmCmCrGrGrGmCrGrGrAmUrGrArAmUrAmCdT*dT; antisense rGmUrArUrUmCrArUrCrCrGrCrCrCrGrGmUrArCdT*dT)	89	
AD-9692: PCSK9 siRNA (sense mUrGmCmCrGrGrGmCmCmCrAmCrArAmCrGmCmUmUdT*dT; antisense rArArGrCrGrUrUrGrUrGrGrGrCrCrCrGrGmCrAdT*dT)	78	
AD-9757: PCSK9 siRNA (sense mCmUmCmUrGmCmCrArArArGrAmUrGmUmCrAmUmCdT*dT; antisense rGrArUrGrAmCrArUrCrUrUrUrGrGmCrArGrArGdT*dT)	78	
AD-9592: PCSK9 siRNA (sense rCrCrUrArGrArCrArCrCrArGrCrArUrArCrArGdT*dT; antisense rCrUrGrUrArUrGrCrUrGrGrUrGrUrCrUrArGrGdT*dT)	55	Mean percent remaining mRNA transcript at siRNA concentration/in cell type 100 nM/HepG2: 46%
AD-9690: PCSK9 siRNA (sense mUmCrAmUmUrGrGmUrGmCmCmUmCmCrArGmCrGrAdT*dT; antisense rUrCrGrCrUrGrGrArGrGmCrArCmCrArArUrGrAdT*dT)	92	
AD-9615: PCSK9 siRNA (sense rUrUrCrCrGrGrGrArCrGrArUrGrCrCrUrGrCrCdT*dT; antisense rGrGrCrArGrGrCrArUrCrGrUrCrCrCrGrGrArAdT*dT)	116	
AD-9712: PCSK9 siRNA (sense rGrAmCrAmUmCrAmUmUrGrGmUrGmCmCmUmCmCrAdT*dT; antisense rUrGrGrArGrGmCrArCmCrArArUrGrArUrGrUrCdT*dT)	107	
AD-9717: PCSK9 siRNA (sense rAmCmUrGmUmCmCmCmUmCmCmUmUrGrArGmCrAmCdT*dT; antisense rGrUrGrCrUmCrArArGrGrArGrGrGrAmCrArGrUdT*dT)	105	
